Experimental data taken from article PMC9403976, “Elucidating the path to Plasmodium prolyl-tRNA synthetase inhibitors that overcome halofuginone resistance” (Nature Communications, 2022).
“And” between values parts separate entries of the source, which are not always exact repeats. Equal values may be shown once. Read-outs that look alike come from different tables or passages of the source.

Assays:
P. falciparum Dd2-2D4 = test: P. falciparum asexual blood stage (ABS) growth assay, SYBR Green, 72 h, wild-type parasites; type: cell-based, Plasmodium falciparum; details: wildtype (Dd2-2D4); 10 μM
PfcProRS = target: T1, PfcProRS (Plasmodium falciparum, UniProt Q8I5R7); type: binding; details: for dose-response signal (normalized), SI Fig 8: single replicates
T1 construct: made in house; host or cells: E. coli SoluBL-21
T1 sequence (Q8I5R7 249-746): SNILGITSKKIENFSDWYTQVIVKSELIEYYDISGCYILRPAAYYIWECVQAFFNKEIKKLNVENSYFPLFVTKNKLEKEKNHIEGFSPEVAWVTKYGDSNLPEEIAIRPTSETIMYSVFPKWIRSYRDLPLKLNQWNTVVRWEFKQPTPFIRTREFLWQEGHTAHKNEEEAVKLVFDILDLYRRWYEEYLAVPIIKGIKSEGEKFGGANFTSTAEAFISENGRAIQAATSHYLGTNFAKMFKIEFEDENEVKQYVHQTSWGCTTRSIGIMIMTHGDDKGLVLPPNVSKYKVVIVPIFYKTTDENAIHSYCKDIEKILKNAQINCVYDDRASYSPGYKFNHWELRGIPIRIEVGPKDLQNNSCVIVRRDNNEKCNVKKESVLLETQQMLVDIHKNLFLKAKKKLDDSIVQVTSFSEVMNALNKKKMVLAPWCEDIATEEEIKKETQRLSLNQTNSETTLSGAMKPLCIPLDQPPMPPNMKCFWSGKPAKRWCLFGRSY

HsProRS = HsProRS (Homo sapiens, UniProt P07814); test: TR-FRET ligand displacement assay with tracer MAT379 (CoraFluor-1-Halo and anti-His6 antibody formats); type: binding; design: made in house; host or cells: E. coli SoluBL-21; details: for TR-FRET dose-response, normalized signal (SI Fig 11): individual replicates
HsProRS, sequence (P07814 996-1512): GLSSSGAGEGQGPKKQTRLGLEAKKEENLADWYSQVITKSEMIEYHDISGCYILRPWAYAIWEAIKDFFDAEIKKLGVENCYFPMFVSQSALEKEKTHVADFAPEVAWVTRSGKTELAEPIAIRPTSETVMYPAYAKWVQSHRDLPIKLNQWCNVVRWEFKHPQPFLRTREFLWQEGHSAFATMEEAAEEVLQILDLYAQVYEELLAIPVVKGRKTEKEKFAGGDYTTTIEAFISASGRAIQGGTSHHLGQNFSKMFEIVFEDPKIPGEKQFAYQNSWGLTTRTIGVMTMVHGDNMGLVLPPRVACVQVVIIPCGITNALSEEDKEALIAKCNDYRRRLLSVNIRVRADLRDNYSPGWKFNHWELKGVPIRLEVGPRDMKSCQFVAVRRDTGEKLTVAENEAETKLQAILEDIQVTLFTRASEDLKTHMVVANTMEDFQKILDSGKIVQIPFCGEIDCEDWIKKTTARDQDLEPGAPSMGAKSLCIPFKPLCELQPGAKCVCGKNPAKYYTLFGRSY

C[C@@H]1CCC[C@H](C)N1C(=O)Nc1nccnc1C(=O)NC1Cc2ccccc2C1 [compound 19]
% signal at 10 μM, wildtype (Dd2-2D4) (P. falciparum Dd2-2D4): 67.3% | dose-response signal (normalized), SI Fig 8 (PfcProRS; Log[inhibitor] (M) -5.000): 3.96E-01 and 1.71E-01 and 2.62E-01 | dose-response signal (normalized), SI Fig 8 (PfcProRS; Log[inhibitor] (M) -5.301): 5.52E-01 and 5.02E-01 and 5.09E-01 | dose-response signal (normalized), SI Fig 8 (PfcProRS; Log[inhibitor] (M) -5.601): 8.00E-01 and 7.91E-01 and 8.42E-01 | dose-response signal (normalized), SI Fig 8 (PfcProRS; Log[inhibitor] (M) -5.904): 7.54E-01 and 9.47E-01 and 8.47E-01 | dose-response signal (normalized), SI Fig 8 (PfcProRS; Log[inhibitor] (M) -6.208): 1.02E+00 and 9.13E-01 and 1.08E+00 | dose-response signal (normalized), SI Fig 8 (PfcProRS; Log[inhibitor] (M) -6.509): 9.59E-01 and 1.03E+00 and 9.76E-01 | dose-response signal (normalized), SI Fig 8 (PfcProRS; Log[inhibitor] (M) -6.796): 1.09E+00 and 1.00E+00 and 1.08E+00 | dose-response signal (normalized), SI Fig 8 (PfcProRS; Log[inhibitor] (M) -7.108): 9.66E-01 and 9.00E-01 and 9.04E-01 | dose-response signal (normalized), SI Fig 8 (PfcProRS; Log[inhibitor] (M) -7.409): 9.53E-01 and 1.01E+00 and 9.35E-01 | dose-response signal (normalized), SI Fig 8 (PfcProRS; Log[inhibitor] (M) -7.710): 1.09E+00 and 9.53E-01 and 1.01E+00 | dose-response signal (normalized), SI Fig 8 (PfcProRS; Log[inhibitor] (M) -8.000): 1.12E+00 and 1.07E+00 and 9.69E-01 | dose-response signal (normalized), SI Fig 8 (PfcProRS; Log[inhibitor] (M) -8.301): 1.02E+00 (2×) and 1.14E+00 | dose-response signal (normalized), SI Fig 8 (PfcProRS; Log[inhibitor] (M) -8.602): 1.07E+00 and 8.94E-01 and 1.04E+00 | dose-response signal (normalized), SI Fig 8 (PfcProRS; Log[inhibitor] (M) -9.000): 1.15E+00 and 8.96E-01 and 9.87E-01 | dose-response signal (normalized), SI Fig 8 (PfcProRS; Log[inhibitor] (M) -9.301): 8.48E-01 and 9.64E-01 and 1.02E+00 | PfcProRS -- best Kd (PfcProRS; SI Fig 16a, values on -log scale): 5.928 | IC50 (HsProRS): > 10 µM | Kd (HsProRS; HsProRS (KD [nM]) + 100 μM proline mean, + 100 μM proline): 1320 nM | normalized TR-FRET ligand displacement signal, dose-response replicates (SI Fig 6) (HsProRS; Log[inhibitor] (M) -5.000): 6.53E-01 and 6.39E-01 and 5.91E-01 | TR-FRET dose-response, normalized signal (SI Fig 11) (HsProRS; Log[inhibitor] (M) -5.000): 8.15E-01 and 7.82E-01 and 8.24E-01 | normalized TR-FRET ligand displacement signal, dose-response replicates (SI Fig 6) (HsProRS; Log[inhibitor] (M) -5.301): 8.82E-01 and 7.60E-01 and 7.73E-01 | TR-FRET dose-response, normalized signal (SI Fig 11) (HsProRS; Log[inhibitor] (M) -5.301): 9.03E-01 and 8.79E-01 and 9.19E-01 | normalized TR-FRET ligand displacement signal, dose-response replicates (SI Fig 6) (HsProRS; Log[inhibitor] (M) -5.601): 8.80E-01 (2×) and 8.74E-01 | TR-FRET dose-response, normalized signal (SI Fig 11) (HsProRS; Log[inhibitor] (M) -5.602): 9.30E-01 and 1.01E+00 and 9.11E-01 | normalized TR-FRET ligand displacement signal, dose-response replicates (SI Fig 6) (HsProRS; Log[inhibitor] (M) -5.904): 9.78E-01 and 8.58E-01 and 8.56E-01 | TR-FRET dose-response, normalized signal (SI Fig 11) (HsProRS; Log[inhibitor] (M) -5.904): 9.97E-01 and 1.07E+00 and 9.73E-01 | TR-FRET dose-response, normalized signal (SI Fig 11) (HsProRS; Log[inhibitor] (M) -6.205): 1.07E+00 and 9.89E-01 and 1.03E+00 | normalized TR-FRET ligand displacement signal, dose-response replicates (SI Fig 6) (HsProRS; Log[inhibitor] (M) -6.208): 1.01E+00 and 9.70E-01 and 9.45E-01 | TR-FRET dose-response, normalized signal (SI Fig 11) (HsProRS; Log[inhibitor] (M) -6.506): 1.02E+00 and 1.05E+00 and 9.88E-01 | normalized TR-FRET ligand displacement signal, dose-response replicates (SI Fig 6) (HsProRS; Log[inhibitor] (M) -6.509): 9.25E-01 and 1.05E+00 and 8.66E-01 | normalized TR-FRET ligand displacement signal, dose-response replicates (SI Fig 6) (HsProRS; Log[inhibitor] (M) -6.796): 1.10E+00 and 9.97E-01 and 1.01E+00 | TR-FRET dose-response, normalized signal (SI Fig 11) (HsProRS; Log[inhibitor] (M) -6.796): 9.68E-01 and 1.04E+00 and 9.56E-01 | TR-FRET dose-response, normalized signal (SI Fig 11) (HsProRS; Log[inhibitor] (M) -7.097): 1.08E+00 (2×) and 9.97E-01 | normalized TR-FRET ligand displacement signal, dose-response replicates (SI Fig 6) (HsProRS; Log[inhibitor] (M) -7.108): 1.04E+00 (2×) and 1.01E+00 | TR-FRET dose-response, normalized signal (SI Fig 11) (HsProRS; Log[inhibitor] (M) -7.407): 1.09E+00 and 9.94E-01 and 1.12E+00 | normalized TR-FRET ligand displacement signal, dose-response replicates (SI Fig 6) (HsProRS; Log[inhibitor] (M) -7.409): 9.88E-01 and 9.12E-01 and 1.00E+00 | TR-FRET dose-response, normalized signal (SI Fig 11) (HsProRS; Log[inhibitor] (M) -7.708): 1.07E+00 and 1.00E+00 and 1.08E+00 | normalized TR-FRET ligand displacement signal, dose-response replicates (SI Fig 6) (HsProRS; Log[inhibitor] (M) -7.710): 9.99E-01 and 1.02E+00 and 9.53E-01 | normalized TR-FRET ligand displacement signal, dose-response replicates (SI Fig 6) (HsProRS; Log[inhibitor] (M) -8.000): 9.74E-01 and 8.92E-01 and 8.64E-01 | TR-FRET dose-response, normalized signal (SI Fig 11) (HsProRS; Log[inhibitor] (M) -8.018): 1.06E+00 and 1.03E+00 and 1.01E+00 | normalized TR-FRET ligand displacement signal, dose-response replicates (SI Fig 6) (HsProRS; Log[inhibitor] (M) -8.301): 9.68E-01 and 9.13E-01 and 9.38E-01 | TR-FRET dose-response, normalized signal (SI Fig 11) (HsProRS; Log[inhibitor] (M) -8.319): 9.44E-01 and 9.92E-01 and 9.43E-01 | normalized TR-FRET ligand displacement signal, dose-response replicates (SI Fig 6) (HsProRS; Log[inhibitor] (M) -8.602): 9.46E-01 and 9.29E-01 and 1.00E+00 | TR-FRET dose-response, normalized signal (SI Fig 11) (HsProRS; Log[inhibitor] (M) -8.620): 1.03E+00 and 1.01E+00 and 7.25E-01 | TR-FRET dose-response, normalized signal (SI Fig 11) (HsProRS; Log[inhibitor] (M) -8.921): 1.02E+00 and 9.26E-01 and 9.67E-01 | normalized TR-FRET ligand displacement signal, dose-response replicates (SI Fig 6) (HsProRS; Log[inhibitor] (M) -9.000): 9.21E-01 and 9.72E-01 and 9.38E-01 | TR-FRET dose-response, normalized signal (SI Fig 11) (HsProRS; Log[inhibitor] (M) -9.097): 9.79E-01 and 1.10E+00 and 1.04E+00 | normalized TR-FRET ligand displacement signal, dose-response replicates (SI Fig 6) (HsProRS; Log[inhibitor] (M) -9.301): 8.73E-01 and 8.54E-01 and 9.42E-01 | HsProRS % signal at 10 μM (HsProRS; no added proline/ATP (-), 10 μM): 80.7%
